For one experiment, the system named is HeLa cells. The experiment is described as follows: Cellular delivery of tagged proteins, confocal microscopy. Format: cell-based. To be noted: for intracellular fluorescence pattern of cholesterol-tagged protein: protein tagged with CB-cholesterol tag. As to the method: Purified Coomassie blue-cholesterol tag powder was reconstituted with ethanol/water (v/v: 4/1) to a concentration of 1.6 mM and stored at 4° C. as a stock. Before tagging, the concentration of all the protein solutions was diluted to 25 μM. […] The mixture was quickly mixed by pipetting. The mixture was incubated in a water bath (37° C.) for 8 min and sonicated in an ultrasonic water bath for 30 seconds. After another round of 8-min water bath incubation at 37° C., the protein was ready for delivery.
Cells were seeded on glass-bottom dishes (poly-D-lysine treated, MatTek Corp.) one day before the experiments. The cell monolayer was washed once with serum-free RPMI 1640 media and treated with 2 mL of RPMI 1640 media containing the tagged protein at a final concentration of 1 μM for 2 h. In the end, the cells were counter-stained with Hoechst 33342 and Alexa Fluor® 594 labeled Wheat Germ Agglutinin (WGA-AF594), respectively. The cells were washed three times with RPMI 1640 and imaged on a Zeiss LSM 710 microscope.
To study the delivery effect at low temperature (4° C.), cell monolayers were pre-equilibrated with cold media (RPMI 1640) for 10 minutes at 4° C. and then treated with the cold solution of tagged protein for 3 h. The cells were washed with cold media and imaged immediately.

Experiment [1] concerns PC-3, MDA-MB-231, SK-BR-3, DU-145, KB, and HEK-293T. The experiment is described as follows: Cellular delivery of aprotinin-tag complex in additional cell types. The format is cell-based. To be noted: protein-tag complex; independent of the cell lines. Here is the method:
To further rule out the scenario that the tagged proteins initially enter cells via endocytosis followed by an efficient endosomal escape, the confocal microscopy experiment were performed again using the small protein, aprotinin, at 4° C., a temperature that blocks endocytic membrane trafficking. […] To evaluate the generality of this protein tagging technology, it was tested using […] additional cell types besides HeLa cells (i.e., PC-3, MDA-MB-231, SK-BR-3, DU-145, KB, and HEK-293T). Cells exposed to protein (aprotinin)-tag complex and then stained for protinin and WGA to show the cell boundary. […] Perhaps more importantly, protein transfection directly into the cytosol was also achieved in further experiments of primary cells including human adipose-derived stem cells, primary human dermal fibroblasts, and primary human umbilical vein endothelial cells (HUVEC) (not shown).
Cells were seeded on glass-bottom dishes (poly-D-lysine treated, MatTek Corp.) one day before the experiments. The cell monolayer was washed once with serum-free RPMI 1640 media and treated with 2 mL of RPMI 1640 media containing the tagged protein at a final concentration of 1 μM for 2 h. In the end, the cells were counter-stained with Hoechst 33342 and Alexa Fluor® 594 labeled Wheat Germ Agglutinin (WGA-AF594), respectively. […]

Experiment [2] deals with peptidylprolyl isomerase B (PPIB) mRNA. The experiment in a line: siRNA delivery and real time RT PCR (PPIB mRNA knockdown in PC-3 cells). Format: cell-based. To be noted: siRNA complexed with tag, real-time PCR. Here is the method: A small library of 14 chemicals that represent various lipophilicities while sharing a carboxylic acid group for easy conjugation with ethidium was screened. These hydrophobic compounds were chemically linked to ethidium via a hexacarbon (C6) linker. The resulting small-molecule tags were mixed with a model siRNA sequence against peptidylprolyl isomerase B (PPIB) and tested on a prostate tumor cell line, PC-3, for RNAi.
PC-3 cells were seeded in 24-well plate at density of 5,000 cells per well. […] Total RNA was isolated from the cell monolayer using Trizol reagent (Invitrogen) according to the manufacturer's protocol. 200 nanograms of RNA was converted to cDNA using random hexamer primer and MultiScribe Reverse Transcriptase Reagent (Applied Biosystems, Inc., Branchburg, N.J.). 100 nanograms of cDNA was amplified by SensiFast SYBR kit (Bioline, Taunton, Mass.) on a Chromo4™ Real-Time system (Bio-Rad, Hercules, Calif.). The primers used for PPIB amplification were 5′-[…]-3′ (forward primer; SEQ ID NO:6) and 5′-[…]-3′ (reverse primer; SEQ ID NO:7). Primers for detection of 18s were 5′-[…]-3′ (forward primer; SEQ ID NO:8) and 5′-[…]-3′ (reverse primer; SEQ ID NO:9).
(In general: Real-time PCR tracks product formation cycle by cycle.)

The next experiment has as its system actin in HeLa cells. The experiment is described as follows: F-actin labeling in live cells using LifeAct-GFP. Format: cell-based. As to the method: Lastly, two applications that should have a major impact on biology and medicine, immunofluorescence in live cells, and delivery of therapeutic proteins inside cells were assessed for compatibility with the disclosed tag approach for cytosolic delivery. Immunofluorescence, one of the most common techniques in biological and medical research, is currently used to profile cell surface markers on live cells (e.g., many flow cytometry studies) missing all the key cell signaling nodes inside cells. Alternatively, immunofluorescence is currently used on fixed cells, missing the temporal dynamics of active cell signaling that determines cell fate, behavior, communications, and growth. […] Briefly, HeLa cells were incubated with cholesterol-tagged LifeAct-GFP or LifeAct-GFP alone and the cells were imaged. […] To confirm the labeling specificity, cells were pretreated with cytochalasin-D before incubating with LifeAct-Tag.
HeLa cells were seeded onto glass-bottom dishes. After one-day of culturing, cells were incubated with fresh media containing tagged LifeAct-GFP for 4 h at 37° C., followed by washing and counterstaining Hoechst 33258. The cells were imaged on an Olympus fluorescence microscope equipped with a true-color CCD, Qcolor 5.

In experiment [3] the test system is siRNA. The experiment in a line: Intercalation into siRNA monitored by fluorescence activation. The format is binding. Particulars: for fluorescence activation upon intercalation into siRNA: compared with DNA (positive control); for intercalation of tag into siRNA (fluorescence enhancement): compared to tag 5. Here is the method: To test this new concept of cytosolic delivery, a conjugation-free methodology was investigated that incorporated small chemical tags to transform siRNA sufficiently hydrophobic, membrane-permeant, and self-deliverable. […] For a proof of concept, a number of existing oligonucleotide intercalators were tested, due to their potential to non-covalently attach the lipophilic moiety to siRNA. Although DNA intercalating dyes are well-studied and broadly available, selection of dsRNA intercalators is limited. […] DNA intercalating dyes apply a stretching force thus may or may not work on siRNA. Eight DNA intercalating dyes (molecular structures shown in FIG. 7) were evaluated utilizing a very convenient feature of these dyes, fluorescence activation upon intercalation into oligonucleotides. […] Therefore, ethidium was used in the following studies.
After 5-minute incubation, the mixture was diluted to 100 μL and the fluorescence was measured with the microplate reader. The fluorescence increment (J. B. Le Pecq, et al., DNA polyintercalating drugs: DNA binding of diacridine derivatives, Proc Natl Acad Sci USA 72(8) (1975) 2915-9; B. Gaugain, et al., DNA Bifunctional intercalators. 2. Fluorescence properties and DNA binding interaction of an ethidium homodimer and an acridine ethidium heterodimer, Biochemistry 17(24) (1978) 5078-88, each of which is incorporated herein by reference in its entirety), ΔIF, is the difference of fluorescence intensity of the tags in the presence or absence of siRNA.

Experiment [4] relates to siRNA. The experiment in a line: Gel electrophoresis of siRNA with intercalators. To be noted: high degree of intercalation. An excerpt:
FIGS. 2A-2H illustrate tag design and characterizations. (FIG. 2A) Intercalation of conventional DNA intercalators into siRNA monitored by fluorescence activation. Ethidium and acridinium show similar fluorescence activation in both DNA and RNA, unlike the others. (FIG. 2B) Gel electrophoresis of siRNA with acridinium and ethidium at low and high degree of intercalation. […] (FIG. 2C) Screening hydrophobic compounds (after linking with ethidium) for mRNA (PPIB) knockdown in PC-3 cells. The numbers represent the compounds illustrated in FIG. 2D. Steroids such as cholesterol and stigmasterol offer the highest RNAi efficiency. (FIG. 2D) Molecular structures of the 14 exemplary chemical tags tested in the current study. The hydrophobic compounds are linked to ethidium via a C6 spacer. (FIG. 2E) Dose response of gene knockdown using siRNA tagged with ethidium-cholesterol (left) in PC-3 cells. […]
To test this new concept of cytosolic delivery, a conjugation-free methodology was investigated that incorporated small chemical tags to transform siRNA sufficiently hydrophobic, membrane-permeant, and self-deliverable. […] Eight DNA intercalating dyes (molecular structures shown in FIG. 7) were evaluated utilizing a very convenient feature of these dyes, fluorescence activation upon intercalation into oligonucleotides. […]

Entries after “also recorded” stand apart in the source; their conditions may differ.

Turning to aprotinin, the “intracellular fluorescence pattern of cholesterol-tagged protein” value in the experiment on HeLa cells (HeLa cells) is “bright and homogeneous fluorescence intracellular distribution”. In addition, the “intracellular fluorescence pattern without the cholesterol tag” value in the experiment with HeLa cells (HeLa cells, same condition, no tag) is listed as “only a few punctate fluorescent spots”. Moreover, the “uptake by cells at 4° C.” value in the experiment with HeLa cells (low tag/protein ratio) was “virtually confined to the cell membrane”; in the experiment with HeLa cells (optimal tag/aprotinin ratio) it was “bright and homogeneous intracellular fluorescence”; with HeLa cells (without the tag), “negligible”. Also, the “cytosolic delivery in additional cell types” value in experiment [1] is given as “Efficient cytosolic delivery”.

Take “3,8-bis(tert-butyloxycarbonylamino)-5-(6-L-histinylcarbonylamino-hexyl)-6-phenylphenanthridine [tag 3]”: the “RNAi effect (PPIB mRNA knockdown), tag screening” value (shortened to “RNAi effect (PPIB mRNA knockdown)”) in experiment [2] is “no or low effect”.

As to “3,8-bis(tert-butyloxycarbonylamino)-5-(6-stigmasterylcarbonylamino-hexyl)-6-phenylphenanthridine [tag 6]”, the “RNAi effect (PPIB mRNA knockdown)” value in experiment [2] is listed as “significant RNAi effect”.

As to “3,8-bis(tert-butyloxycarbonylamino)-5-(6-cholesterylcarbonylamino-hexyl)-6-phenylphenanthridine [tag 5]”, the “RNAi effect (PPIB mRNA knockdown)” value in experiment [2] was “significant RNAi effect”.

For `C=C1[C@@H](C)[C@H]2[C@H](Cc3ccccc3)NC(=O)[C@]23[C@H](OC(C)=O)/C=C/[C@@](C)(O)C(=O)[C@@H](C)C/C=C/[C@H]3[C@@H]1O` [cytochalasin-D, reference compound], the “actin filament structure after pretreatment” value in the experiment on actin in HeLa cells (cells pretreated before incubating with LifeAct-Tag) is reported as “completely disrupted”.

As for `CC[n+]1c(-c2ccccc2)c2cc(N)ccc2c2ccc(N)cc21` [ethidium, reference compound], in the experiment on siRNA [3], the “fluorescence activation upon intercalation into siRNA” value is “strong binding with siRNA”. In the experiment on siRNA [4], the “unwinding of siRNA duplex” value was “does not”.

On to “3,8-bis(tert-butyloxycarbonylamino)-5-(6-pentadecylcarbonylamino-hexyl)-6-phenylphenanthridine [tag 8]”, for which, in experiment [2], the “RNAi effect (PPIB mRNA knockdown)” value is “no or low effect”.

As for “3,8-bis(tert-butyloxycarbonylamino)-5-(6-caprylcarbonylamino-hexyl)-6-phenylphenanthridine [tag 7]”, in experiment [2], the “RNAi effect (PPIB mRNA knockdown)” value is listed as “no or low effect”.

With “3,8-bis(tert-butyloxycarbonylamino)-5-(6-cerotylcarbonylamino-hexyl)-6-phenylphenanthridine [tag 9]”, in experiment [2], the “RNAi effect (PPIB mRNA knockdown)” value is “failed to lower the PPIB mRNA level”. Further, in the experiment with siRNA [3], the “intercalation of tag into siRNA (fluorescence enhancement)” value is given as “minor fluorescence enhancement; also recorded: failed to intercalate into siRNA”.

“Coomassie blue, dicholest carbamyl 3-(3-propyl dimethyl amino)propyl sulfonamide [cholesterol tag]”: the “imaging quality of delivered LifeAct-GFP” value in the experiment with actin in HeLa cells (same LifeAct-GFP concentration) is “significantly better contrast”.

Take acridinium [reference compound]: the “fluorescence activation upon intercalation into siRNA” value with siRNA [3] is on record as “strong binding with siRNA”. Besides, the “unwinding of siRNA duplex” value in the experiment on siRNA [4] is reported as “unwound the siRNA double helix”.

With “3,8-bis(tert-butyloxycarbonylamino)-5-(6-chloroquinecarboylamino-hexyl)-6-phenylphenanthridine [tag 13]”, in experiment [2], the “RNAi effect (PPIB mRNA knockdown)” value was “no or low effect”.

With “3,8-bis(tert-butyloxycarbonylamino)-5-(6-L-argininylcarbonylamino-hexyl)-6-phenylphenanthridine [tag 4]”, the “RNAi effect (PPIB mRNA knockdown)” value in experiment [2] is on record as “no or low effect”.

With “3,8-bis(tert-butyloxycarbonylamino)-5-(6-L-leucinylcarbonylamino-hexyl)-6-phenylphenanthridine [tag 2]”, the “RNAi effect (PPIB mRNA knockdown)” value in experiment [2] was “no or low effect”.

In the case of “3,8-bis(tert-butyloxycarbonylamino)-5-[6-(1,2-dipalmitin)-carboylamino-hexyl]-6-phenylphenanthridine [tag 14]”, the “RNAi effect (PPIB mRNA knockdown)” value in experiment [2] is reported as “no RNAi effect”. For the same compound, in the experiment on siRNA [3], the “intercalation of tag into siRNA (fluorescence enhancement)” value was “minor fluorescence enhancement; also recorded: failed to intercalate into siRNA”.

Consider “lysozyme: protein, 15 kDa, fluorescently labeled cargo”, for which the “intracellular fluorescence pattern of cholesterol-tagged protein” value in the experiment with HeLa cells (HeLa cells) is on record as “diffused distribution while having a few punctate bright spots”. Moreover, the intracellular fluorescence distribution result with HeLa cells (tag:protein molar ratio 1:1) is listed as “only punctate intracellular fluorescence distribution”; in the experiment with HeLa cells (tag:protein molar ratio 3:1) it was “only punctate intracellular fluorescence distribution”; in the experiment with HeLa cells (tag:protein molar ratio 6:1), “diffused fluorescence signal started to appear”; in the experiment on HeLa cells (tag:protein molar ratio 8:1) it was “significant direct membrane permeation”.

The values are drawn from patent US20220107246A1, “NONCOVALENT TAGS AND RELATED METHODS FOR CYTOSOLIC DELIVERY OF MACROBIOMOLECULES” (University of Washington, priority 2019, published 2022).
